# Reference: PMC10951066, “The self-reactive FVIII T cell repertoire in healthy individuals relies on a short set of epitopes and public clonotypes” (Frontiers in Immunology, 2024)
# Assays:
# [1] = tested on: CD4 T cells from healthy donors; experiment: HLA restriction and FVIII specificity IFN-γ ELISPOT of T cell lines raised with the pool of 18 peptides (four donors); assay type: cell-based, human; parameters: key to Protein specificty: +: positive T cell responses to both the full-length FVIII protein (protein specificity); details: for intensity (%): four donors, 87 specific T cell lines in total; for Responding donors (%): four healthy donors, T cell lines amplified with pool of 18 FVIII peptides; for HLA restriction (%) DP / HLA restriction (%) DR: percentage of restricted T cell lines, inhibition higher than 50% of ELISPOT count; for HLA restriction (%) DP: anti-HLA-DP (B7/21) 10 μg/ml; for HLA restriction (%) DR: anti-HLA-DR (L243) 10 μg/ml; for Protein specificty: recognition of rFVIII loaded on autologous DCs by peptide-specific T cell lines
# Method: T cells were incubated with autologous DCs alone (control) or with DCs incubated with rFVIII (0.2 µM), ovalbumin (3 µM), and KLH (1 µM) or PBMCs for FVIII peptides (10 µg/ml) in MultiScreen 96-well plates (Merck Millipore) previously coated with 2.5 µg/mL of anti-human IFN-γ monoclonal antibody (mAb; 1-D1K; Mabtech). The T cell lines and APCs were plated at equal number for both stimulated and unstimulated control conditions. […] The spot number was determined by using the ELISPOT Reader System (Autoimmun Diagnostika, Ebinger, Germany). HLA restriction was assessed using monoclonal antibodies (10 μg/ml) specific to HLA-DP (B7/21), HLA-DQ (SPVL3), or HLA-DR (L243).
# Based on the T cell epitope prediction software NetMHCpan4.0 ([23]), we selected 63 20-mer peptides that are predicted for their ability to bind promiscuously, with a percentile score below 10%, at least four HLA class II molecules from a selection of 15 preponderant HLA-DR alleles in our panel (as shown in ST1). The predicted peptides spread all along the full-length FVIII sequence and account for more than 50% of its amino acid coverage. A total of 16 healthy donors with unrelated HLA typing (ST2) were used as sources of T cells to identify FVIII-specific CD4 T cell epitopes. Specific T cell lines were generated by in vitro T cell culture using FVIII and KLH. The peptide specificity of the T cell lines raised against FVIII was assessed by two independent IFN-γ ELISPOT using peptide pools and individual peptides. All donors responded to rFVIII with a total of 409 identified rFVIII-specific T cell lines (Figure 4A). The mean of CD4 T cell precursors was 6.5 cells/M (Figure 4B). Each of the 63 FVIII peptides induced a T cell response in at least one of the donors tested, among the 16 healthy donors tested, with 872 peptide-specific T cell lines identified (Figure 4C). The CD4 T cell epitopes identified were ranked based on their donor coverage capacity (Figure 4D) and response intensity (Figure 4E). Furthermore, 18 out of 63 FVIII T cell epitopes were responsible for 50% of the total T cell response and 100% of the donor coverage. These immunoprevalent epitopes are located in the A1, A3, C1, and C2 domains of the FVIII protein (ST3). Furthermore, four independent healthy donors were used as sources of T cells to characterize the HLA restriction and to assess the reactivity of T cell lines generated with the 18 peptides toward rFVIII. T cell lines were amplified in vitro for 28 days through stimulation with the pool of 18 peptides and then tested through IFN-γ ELISPOT. All four healthy donors tested responded to the pool of 18 FVIII peptides selected, with a total of 87 specific T cell lines identified. Moreover, 16 out of 18 FVIII peptides in the pool generated a specific T cell response among the four donors. A total of 14 of the T cell peptides were tested for recognition of rFVIII-loaded on autologous DCs, and it was confirmed that they were part of the naturally processed FVIII peptides. HLA restriction was assessed by introducing anti-HLA-DR, anti-HLA-DP, and anti-HLA-DQ antibodies. None of the peptides tested was HLA-DQ restricted. Eight peptides were exclusively HLA-DR-restricted, one peptide was HLA-DP, and seven were promiscuously presented on both HLA-DR and HLA-DP molecules (ST4). […] Furthermore, the 18 FVIII peptides selected were ulteriorly tested in an in vitro binding assay to six HLA-DRB1 molecules (as described in ST5).
# Four healthy donors were used as the source of CD4 T cells, which were amplified in vitro with the pool of 18 FVIII peptides selected for study. In an initial IFN-γ ELISPOT assay, we screened each of the 18 peptides individually to identify any positive T cell responses to both the full-length FVIII protein (protein specificity) as well as the specific peptide inducing the response. […]
# [2] = biological target: HLA-DRB1*0301 (Homo sapiens, UniProt P01903+P01911, A100K/A102G/A103R/A169T/F55Y/I96L/K41T/L162R/M171V/P40S/Q125H/Q178H/Q39Y/R42S/S66N/T106N/T262R/W38E/Y61H); experiment: Peptide-MHCII competition binding assay; details: competition ELISA, pH 5.9, peptide 90.000nM – 0.9nM, HLA-DRB1 30 nM, biotinylated peptide 15nM, duplicate wells; ratios below 10 = good binding; reference peptide SFLLTDLINRRTPRVDGQ
# [3] = biological target: HLA-DRB1*1501 (Homo sapiens, UniProt P01903+P01911); experiment: Peptide-MHCII competition binding assay; details: competition ELISA, pH 5.9, peptide 90.000nM – 0.9nM, HLA-DRB1 30 nM, biotinylated peptide 15nM, duplicate wells; ratios below 10 = good binding; reference peptide ENPVVHFFKNIVTPR
Sequence,intensity (%) [1],Responding donors (%) [1] [%],HLA restriction (%) DP [1] [%],HLA restriction (%) DR [1] [%],Protein specificty [1],Ratio IC50 DRB1*0301 [2],Ratio IC50 DRB1*1501 [3]
"ATRRYYLGAVELSWDYMQSD [P20-39, 20-mer FVIII peptide, A1 domain]","4,6%",50,37,63,+,850,
"DHLFNIAKPRPPWMGLLGPT [P75-94, 20-mer FVIII peptide, A1 domain]","1,1%",25,100,,+,40,0.0
"HPQSWVHQIALRMEVLGCEA [P2328-2347, 20-mer FVIII peptide, C2 domain]","1,1%",25,,100,+,0.0,
"INGYIMDTLPGLVMAQDQRI [P1940-1959, 20-mer FVIII peptide, A3 domain]","1,1%",25,,100,,,
"KARLHLQGRSNAWRPQVNNP [P2226-2245, 20-mer FVIII peptide, C2 domain]","12,6%",50,23,77,+,33,0.6
"KEPFSWIKVDLLAPMIIHGI [P2084-2103, 20-mer FVIII peptide, C1 domain]","19,5%",100,47,53,+,6.6,
"KKEEYKMALYNLYPGVFETV [P1986-2005, 20-mer FVIII peptide, A3 domain]","1,1%",25,,100,+,,0.4
"KLARLHYSGSINAWSTKEPF [P2068-2087, 20-mer FVIII peptide, C1 domain]","1,1%",25,,100,,,20
"LGQFLLFCHISSHQHDGMEA [P322-341, 20-mer FVIII peptide, A1 domain]","4,6%",50,,100,+,,0.05
"LLTRYLRIHPQSWVHQIALR [P2320-2339, 20-mer FVIII peptide, C2 domain]","2,3%",25,25,75,+,114,0.0
"LSHVDLVKDLNSGLIGALLV [P178-197, 20-mer FVIII peptide, A1 domain]","4,6%",75,50,50,+,0.05,95
PPIIARYIRLHPTHYSIRST [P2161-2180],"9,2%",75,19,81,+,21,0.05
"RHYFIAAVERLWDYGMSSSP [P1715-1734, 20-mer FVIII peptide, A3 domain]","18,4%",75,,100,+,,77
"SLYISQFIIMYSLDGKKWQT [P2114-2133, 20-mer FVIII peptide, C1 domain]","3,4%",50,33,66,+,30,4
"VHSIFLEGHTFLVRNHRQAS [P285-304, 20-mer FVIII peptide, A1 domain]","3,4%",50,,100,+,58,11
"YDTVVITLKNMASHPVSLHA [P100-119, 20-mer FVIII peptide, A1 domain]",8%,50,,100,+,30,0.5
